This is an account of results in article PMC4774911, “Biochemical Screening of Five Protein Kinases from Plasmodium falciparum against 14,000 Cell-Active Compounds” (PLoS ONE, 2016).

Experiment in all cases: biochemical
Set-up in all cases: endogenous in cells; host or cells: K562 cell extract; species or system K562 (extract); replicate k of n = 2 (each experiment ID is one independent experiment; two experiment IDs per compound)
Settings in all cases: read-out: KDapp

In experiment [1] the target is T1, MAP2K5 (Homo sapiens, UniProt Q13163).
T1 sequence (Q13163 1-448): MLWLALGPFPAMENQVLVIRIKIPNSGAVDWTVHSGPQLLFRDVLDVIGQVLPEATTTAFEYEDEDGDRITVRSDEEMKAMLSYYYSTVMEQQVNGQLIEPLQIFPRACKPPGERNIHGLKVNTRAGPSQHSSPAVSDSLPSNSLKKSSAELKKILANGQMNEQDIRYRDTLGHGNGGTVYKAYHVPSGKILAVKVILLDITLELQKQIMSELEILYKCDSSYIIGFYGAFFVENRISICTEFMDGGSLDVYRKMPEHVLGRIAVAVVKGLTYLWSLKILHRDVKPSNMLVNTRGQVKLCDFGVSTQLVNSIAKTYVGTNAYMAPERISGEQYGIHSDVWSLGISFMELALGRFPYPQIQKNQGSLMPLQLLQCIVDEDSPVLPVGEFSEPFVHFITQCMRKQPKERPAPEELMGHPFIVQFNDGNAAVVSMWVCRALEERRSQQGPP

Experiment [2] deals with T2, NEK1 (Homo sapiens, UniProt Q96PY6).
T2 sequence (Q96PY6 1-1258): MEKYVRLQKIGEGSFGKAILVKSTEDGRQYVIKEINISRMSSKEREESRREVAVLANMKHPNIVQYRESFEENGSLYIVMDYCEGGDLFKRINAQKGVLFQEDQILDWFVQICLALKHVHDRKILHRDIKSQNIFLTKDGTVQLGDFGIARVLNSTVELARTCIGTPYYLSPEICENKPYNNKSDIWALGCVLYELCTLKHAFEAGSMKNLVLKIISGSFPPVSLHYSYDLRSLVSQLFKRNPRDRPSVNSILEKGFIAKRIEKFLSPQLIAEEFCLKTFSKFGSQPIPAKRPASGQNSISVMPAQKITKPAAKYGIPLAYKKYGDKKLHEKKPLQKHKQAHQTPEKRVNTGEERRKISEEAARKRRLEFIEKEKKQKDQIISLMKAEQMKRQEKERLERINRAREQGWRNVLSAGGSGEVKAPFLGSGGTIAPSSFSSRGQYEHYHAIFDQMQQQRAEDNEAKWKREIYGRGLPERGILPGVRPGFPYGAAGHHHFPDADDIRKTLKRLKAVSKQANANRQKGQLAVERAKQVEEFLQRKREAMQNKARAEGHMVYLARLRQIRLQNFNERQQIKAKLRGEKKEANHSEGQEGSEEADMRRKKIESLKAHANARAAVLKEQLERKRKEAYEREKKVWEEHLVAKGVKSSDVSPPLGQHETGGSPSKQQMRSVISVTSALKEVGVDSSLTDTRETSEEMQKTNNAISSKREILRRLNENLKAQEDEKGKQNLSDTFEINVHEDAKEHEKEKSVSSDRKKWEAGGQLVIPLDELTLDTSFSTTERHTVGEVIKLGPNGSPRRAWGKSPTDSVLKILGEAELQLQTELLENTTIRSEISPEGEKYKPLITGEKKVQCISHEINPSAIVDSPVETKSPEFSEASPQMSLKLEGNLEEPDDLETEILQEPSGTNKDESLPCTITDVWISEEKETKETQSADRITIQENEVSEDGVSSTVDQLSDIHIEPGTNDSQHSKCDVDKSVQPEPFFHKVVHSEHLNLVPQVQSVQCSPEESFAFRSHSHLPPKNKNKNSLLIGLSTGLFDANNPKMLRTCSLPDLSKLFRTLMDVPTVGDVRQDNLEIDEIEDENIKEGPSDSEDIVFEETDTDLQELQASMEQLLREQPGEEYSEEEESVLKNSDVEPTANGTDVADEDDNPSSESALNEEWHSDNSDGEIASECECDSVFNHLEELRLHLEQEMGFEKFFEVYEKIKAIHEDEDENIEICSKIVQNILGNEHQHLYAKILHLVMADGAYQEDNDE

The target of experiment [3] is SRC (Homo sapiens, UniProt P12931).
Sequence of SRC (P12931 whole entry): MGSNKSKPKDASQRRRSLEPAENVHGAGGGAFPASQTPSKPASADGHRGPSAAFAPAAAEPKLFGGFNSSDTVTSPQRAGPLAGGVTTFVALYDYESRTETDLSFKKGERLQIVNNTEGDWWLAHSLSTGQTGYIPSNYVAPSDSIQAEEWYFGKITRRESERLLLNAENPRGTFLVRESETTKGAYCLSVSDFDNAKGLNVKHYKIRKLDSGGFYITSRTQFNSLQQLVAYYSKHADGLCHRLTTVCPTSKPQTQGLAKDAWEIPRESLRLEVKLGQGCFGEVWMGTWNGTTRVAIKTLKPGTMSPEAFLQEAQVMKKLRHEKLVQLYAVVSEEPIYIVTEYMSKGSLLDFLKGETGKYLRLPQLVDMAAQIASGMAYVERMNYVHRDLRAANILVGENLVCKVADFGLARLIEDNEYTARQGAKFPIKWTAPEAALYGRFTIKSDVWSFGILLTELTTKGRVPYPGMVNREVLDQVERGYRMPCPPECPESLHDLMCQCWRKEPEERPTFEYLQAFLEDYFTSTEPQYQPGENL
In experiment [4] the target is T3, ADCK1 (Homo sapiens, UniProt Q86TW2).
T3 sequence (Q86TW2 1-530): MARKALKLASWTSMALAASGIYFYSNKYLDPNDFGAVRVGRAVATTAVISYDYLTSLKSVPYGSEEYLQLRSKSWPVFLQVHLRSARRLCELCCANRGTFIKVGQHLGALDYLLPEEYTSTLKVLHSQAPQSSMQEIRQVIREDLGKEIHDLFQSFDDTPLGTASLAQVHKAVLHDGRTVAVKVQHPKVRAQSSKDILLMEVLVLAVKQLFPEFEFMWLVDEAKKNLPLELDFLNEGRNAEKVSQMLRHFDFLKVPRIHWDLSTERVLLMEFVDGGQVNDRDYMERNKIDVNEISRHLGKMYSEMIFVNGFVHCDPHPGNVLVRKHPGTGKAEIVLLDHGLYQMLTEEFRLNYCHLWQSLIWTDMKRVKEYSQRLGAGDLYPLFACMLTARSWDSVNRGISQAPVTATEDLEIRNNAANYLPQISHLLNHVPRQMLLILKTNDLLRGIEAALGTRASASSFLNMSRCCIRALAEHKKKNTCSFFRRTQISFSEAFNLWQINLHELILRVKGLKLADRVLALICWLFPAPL

For experiment [5], the target named is MAPK9 (Homo sapiens, UniProt P45984).
Sequence of MAPK9 (P45984 whole entry): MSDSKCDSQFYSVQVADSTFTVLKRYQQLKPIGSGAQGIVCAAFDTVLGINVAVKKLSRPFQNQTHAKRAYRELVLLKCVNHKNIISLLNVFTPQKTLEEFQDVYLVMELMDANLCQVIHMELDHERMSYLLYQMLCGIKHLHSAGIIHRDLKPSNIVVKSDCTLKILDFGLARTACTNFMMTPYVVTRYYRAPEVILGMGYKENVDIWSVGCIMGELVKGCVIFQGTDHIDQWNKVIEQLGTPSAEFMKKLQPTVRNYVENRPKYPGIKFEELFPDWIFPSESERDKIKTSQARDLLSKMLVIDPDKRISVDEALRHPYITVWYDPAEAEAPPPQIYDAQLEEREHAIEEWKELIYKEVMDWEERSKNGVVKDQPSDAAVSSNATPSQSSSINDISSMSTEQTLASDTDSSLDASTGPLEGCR
Experiment [6] has as its target RIPK2 (Homo sapiens, UniProt O43353).

Where “and” joins values, the source holds several entries; their conditions need not be identical. Equal entries are not always repeated.

Sequence of RIPK2 (O43353 whole entry): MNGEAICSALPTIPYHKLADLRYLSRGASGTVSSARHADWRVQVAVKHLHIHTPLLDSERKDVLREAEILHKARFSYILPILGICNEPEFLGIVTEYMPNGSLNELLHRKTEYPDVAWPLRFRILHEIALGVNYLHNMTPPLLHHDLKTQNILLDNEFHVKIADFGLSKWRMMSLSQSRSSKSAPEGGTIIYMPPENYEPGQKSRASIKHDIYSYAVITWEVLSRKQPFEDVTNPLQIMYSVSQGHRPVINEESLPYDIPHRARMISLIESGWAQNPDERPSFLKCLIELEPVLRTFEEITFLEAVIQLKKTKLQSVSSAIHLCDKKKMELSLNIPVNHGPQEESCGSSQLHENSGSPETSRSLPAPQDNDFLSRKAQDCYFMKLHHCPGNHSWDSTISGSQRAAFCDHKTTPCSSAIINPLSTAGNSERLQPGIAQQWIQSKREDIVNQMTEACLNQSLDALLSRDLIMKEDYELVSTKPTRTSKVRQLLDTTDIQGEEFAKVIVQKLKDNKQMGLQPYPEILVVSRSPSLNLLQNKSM

`CN1CCN(c2ccc(Nc3ncc(C#N)c(Nc4ccccc4C(N)=O)n3)cc2)CC1.Cl` [TCMDC-134116]: the Kd was 0.218 µM and 0.283 µM in experiment [1]; 0.404 µM and 0.333 µM in experiment [2]; 0.184 µM and 0.157 µM in experiment [3]; 0.654 µM in experiment [4]; 0.23 µM and 0.209 µM in experiment [5]; 0.273 µM in experiment [6].
Regarding `Cl.NCC1(c2nc(-c3ccc(Cl)c(O)c3)c(-c3ccncc3)[nH]2)CCCCC1` [TCMDC-141154], the Kd in experiment [1] is 0.479 µM; in experiment [3], 0.111 µM; in experiment [5] it was 0.355 µM; in experiment [6] it was 0.0145 µM and 0.0175 µM.
Turning to `CN(C)CC(O)COc1ccc(Nc2ncc([N+](=O)[O-])c(Nc3ccccc3O)n2)cc1.O=C(O)C(F)(F)F` (stereo not drawn) [TCMDC-141399], the Kd in experiment [2] came to 4.54 µM; in experiment [4] it was 1.18 µM.
